Source: US11834440B2, “Beta-lactam derivatives for the treatment of diseases” (Insilico Medicine IP Limited, priority 2021, dated 2023)

Molecular target: QPCTL (Homo sapiens (Human), UniProt Q9NXS2)
Experiment: QPCTL inhibition, SensoLyte Green Glutaminyl Cyclase Activity Assay
Type: biochemical
Details: 0.8 nM 2x enzyme solution, 45 min at 37° C., 50 mM Tris pH 8.0, 1% DMSO
Method: Preparation of working solution: 2×Glutaminyl Cyclase substrate was diluted in assay buffer to […]. 2×enzyme solution and QPCTL was diluted in assay buffer to 0.8 nM. Glutaminyl Cyclase Developer was diluted in assay buffer to 1×(containing 10 mM 1-Benzyl-Imidazole). Serial dilution of test compounds was performed in DMSO. The final DMSO concentration in 100 μl reaction was 1%. The assay buffer was 50 mM Tris, pH 8.0, 0.01% BSA.
Procedure: 50 μL of 2×Glutaminyl Cyclase substrate solution was added into the assay plate followed by 50 μL of 2×enzyme solution. The plate was centrifuged for 1 min at 1000 rmp. Next the plate was incubated for 45 minutes at 37° C. This was followed by the additional of 50 μL of the prepared Glutaminyl Cyclase developer and incubated for additional 30 min at 37° C. Results were read on SpectraMax Paradigm detecting with emission at Ex/Em=490 nm/520 nm.
A Z′ value was calculated for each assay plate. The Z′ value must be >0.5 or the plate was disqualified. […] Results were calculated using GraphPad Prism 7 software is used for IC50 determination.

Chain of QPCTL (Q9NXS2 whole entry, species assumed): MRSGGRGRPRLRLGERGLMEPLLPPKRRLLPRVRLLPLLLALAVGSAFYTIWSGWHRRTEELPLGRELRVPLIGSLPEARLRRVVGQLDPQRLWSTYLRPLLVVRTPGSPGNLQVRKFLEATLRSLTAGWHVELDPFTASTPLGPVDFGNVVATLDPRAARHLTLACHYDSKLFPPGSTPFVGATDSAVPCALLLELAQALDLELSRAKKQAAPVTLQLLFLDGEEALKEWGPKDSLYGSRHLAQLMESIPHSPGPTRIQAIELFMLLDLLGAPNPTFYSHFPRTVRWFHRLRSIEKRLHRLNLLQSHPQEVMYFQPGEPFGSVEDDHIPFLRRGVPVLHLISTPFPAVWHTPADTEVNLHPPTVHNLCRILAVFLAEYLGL

| IC50 [nM] | Compound |
| --- | --- |
| > 1000 | CC1(C)C(=O)N(c2ccc3[nH]cnc3c2)C1c1c(F)cc(OCCC(F)F)cc1F (racemic) [Compound 2, 1-(1H-benzo[d]imidazol-5-yl)-4-(4-(3,3-difluoropropoxy)-2,6-difluorophenyl)-3,3-dimethylazetidin-2-one] |
| 25 to 1000 | O=C1N(c2ccc3[nH]cnc3c2)C(c2c(F)cc(OCCC(F)F)cc2F)C12CCC2 (racemic) [Compound 3, 2-(1H-benzo[d]imidazol-5-yl)-3-(4-(3,3-difluoropropoxy)-2,6-difluorophenyl)-2-azaspiro[3.3]heptan-1-one] |
| 2 to 25 | CN1CCN(c2cc(F)c(C3CC(=O)N3c3ccc4[nH]cnc4c3)c(F)c2)CC1 (racemic) [Compound 4, 1-(1H-benzo[d]imidazol-5-yl)-4-(2,6-difluoro-4-(4-methylpiperazin-1-yl)phenyl)azetidin-2-one] |
| 2 to 25 | CC1C(=O)N(c2ccc3[nH]cnc3c2)C1c1c(F)cc(OCCC(F)F)cc1F (racemic) [Compound 7, 1-(1H-benzo[d]imidazol-5-yl)-4-(4-(3,3-difluoropropoxy)-2,6-difluorophenyl)-3-methylazetidin-2-one] |
| 2 to 25 | O=C1C(O)C(c2c(F)cc(OCCC(F)F)cc2F)N1c1ccc2[nH]cnc2c1 (racemic) [Compound 8, (cis and racemic)-1-(1H-benzo[d]imidazol-5-yl)-4-(4-(3,3-difluoropropoxy)-2,6-difluorophenyl)-3-hydroxyazetidin-2-one] |
| 25 to 1000 | O=C1[C@@H](O)[C@H](c2c(F)cc(OCCC(F)F)cc2F)N1c1ccc2[nH]cnc2c1 (racemic) [Compound 8TR, (trans and racemic)-1-(1H-benzo[d]imidazol-5-yl)-4-(4-(3,3-difluoropropoxy)-2,6-difluorophenyl)-3-hydroxyazetidin-2-one] |
| 25 to 1000 | Cn1cc(-c2cc(F)c(C3CC(=O)N3c3ccc4[nH]cnc4c3)c(F)c2)cn1 (racemic) [Compound 9, 1-(1H-benzo[d]imidazol-5-yl)-4-(2,6-difluoro-4-(1-methyl-1H-pyrazol-4-yl)phenyl)azetidin-2-one] |
| 2 to 25 | Cc1nc(-c2cc(F)c([C@H]3[C@@H](C)C(=O)N3c3ccc4[nH]cnc4c3)c(F)c2)cs1 (racemic) [Compound 10CR, (cis and racemic)-1-(1H-benzo[d]imidazol-5-yl)-4-(2,6-difluoro-4-(2-methylthiazol-4-yl)phenyl)-3-methylazetidin-2-one] |
| 2 to 25 | Cc1ncc(-c2cc(F)c([C@H]3[C@@H](C)C(=O)N3c3ccc4[nH]cnc4c3)c(F)c2)s1 (racemic) [Compound 11CR, (cis and racemic)-1-(1H-benzo[d]imidazol-5-yl)-4-(2,6-difluoro-4-(2-methylthiazol-5-yl)phenyl)-3-methylazetidin-2-one] |
| 2 to 25 | C[C@H]1C(=O)N(c2ccc3[nH]cnc3c2)[C@H]1c1c(F)cc(N2CCC(F)(F)C2)cc1F (racemic) [Compound 12CR, (cis and racemic)-1-(1H-benzo[d]imidazol-5-yl)-4-(4-(3,3-difluoropyrrolidin-1-yl)-2,6-difluorophenyl)-3-methylazetidin-2-one] |
| 2 to 25 | CC1C(=O)N(c2ccc3[nH]cnc3c2)C1c1c(F)cc(-c2cnn(C(F)(F)F)c2)cc1F (racemic) [Compound 14, (cis and racemic)-1-(1H-benzo[d]imidazol-5-yl)-4-(2,6-difluoro-4-(1-(trifluoromethyl)-1H-pyrazol-4-yl)phenyl)-3-methyl azetidin-2-one] |
| < 2 | O=C1[C@H](O)[C@H](c2c(F)cc(-c3cnn(C(F)(F)F)c3)cc2F)N1c1ccc2[nH]cnc2c1 (racemic) [Compound 16CR] |
| 25 to 1000 | O=C1[C@@H](O)[C@H](c2c(F)cc(-c3cnn(C(F)(F)F)c3)cc2F)N1c1ccc2[nH]cnc2c1 (racemic) [Compound 16TR] |
| < 2 | C=C1C(=O)N(c2ccc3[nH]cnc3c2)C1c1c(F)cc(OCCC(F)F)cc1F (racemic) [Compound 22, (racemic)-1-(1H-benzo[d]imidazol-5-yl)-4-(4-(3,3-difluoropropoxy)-2,6-difluorophenyl)-3-methyleneazetidin-2-one] |
| 2 to 25 | C[C@H]1C(=O)N(c2ccc3[nH]cnc3c2)[C@H]1c1ccc(OCCC(F)F)nc1 (racemic) [Compound 23CR, (cis and racemic)-1-(1H-benzo[d]imidazol-5-yl)-4-(6-(3,3-difluoropropoxy)pyridin-3-yl)-3-methylazetidin-2-one] |
| < 2 | O=C1[C@H](O)[C@H](c2c(F)cc(-c3cnn(C(F)F)c3)cc2F)N1c1ccc2[nH]cnc2c1 (racemic) [Compound 25CR] |
| 2 to 25 | O=C1[C@@H](O)[C@H](c2c(F)cc(-c3cnn(C(F)F)c3)cc2F)N1c1ccc2[nH]cnc2c1 (racemic) [Compound 25TR] |
| 2 to 25 | C[C@H]1C(=O)N(c2ccc3[nH]cnc3c2)[C@H]1c1c(F)cc(-n2cc(C(F)(F)F)cn2)cc1F (racemic) [Compound 28CR, (cis and racemic)-1-(1H-benzo[d]imidazol-5-yl)-4-(2,6-difluoro-4-(4-(trifluoromethyl)-1H-pyrazol-1-yl)phenyl)-3-methylazetidin-2-one] |
| 2 to 25 | C[C@@H]1C(=O)N(c2ccc3[nH]cnc3c2)[C@H]1c1c(F)cc(-n2cc(C(F)(F)F)cn2)cc1F (racemic) [Compound 28TR, (trans and racemic)-1-(1H-benzo[d]imidazol-5-yl)-4-(2,6-difluoro-4-(4-(trifluoromethyl)-1H-pyrazol-1-yl)phenyl)-3-methylazetidin-2-one] |
| < 2 | C[C@H]1C(=O)N(c2ccc3[nH]cnc3c2)[C@H]1c1c(F)cc(OCCC2CC2)cc1F (racemic) [Compound 34CR, (Cis and racemic)-1-(1H-benzo[d]imidazol-5-yl)-4-(4-(2-cyclopropylethoxy)-2,6-difluorophenyl)-3-methylazetidin-2-one] |

| IC50 [nM] | Compound |
| --- | --- |
| 25 to 1000 | C[C@@H]1C(=O)N(c2ccc3[nH]cnc3c2)[C@H]1c1c(F)cc(OCCC2CC2)cc1F (racemic) [Compound 34TR, (Trans and racemic)-1-(1H-benzo[d]imidazol-5-yl)-4-(4-(2-cyclopropylethoxy)-2,6-difluorophenyl)-3-methylazetidin-2-one] |
| 25 to 1000 | C[C@@H]1C(=O)N(c2ccc3[nH]cnc3c2)[C@H]1c1c(F)cc(OCCC(F)F)cc1F (single isomer, unassigned) [Compound 7A] |
| < 2 | C[C@H]1C(=O)N(c2ccc3[nH]cnc3c2)[C@H]1c1c(F)cc(OCCC(F)F)cc1F (single isomer, unassigned) [Compound 7B] |
| > 1000 | O=C1[C@@H](O)[C@@H](c2c(F)cc(OCCC(F)F)cc2F)N1c1ccc2[nH]cnc2c1 (single isomer, unassigned) [Compound 8A] |
| < 2 | O=C1[C@H](O)[C@H](c2c(F)cc(OCCC(F)F)cc2F)N1c1ccc2[nH]cnc2c1 (single isomer, unassigned) [Compound 8B] |
| > 1000 | C[C@@H]1C(=O)N(c2ccc3[nH]cnc3c2)[C@@H]1c1c(F)cc(-c2cnn(C)c2)cc1F (single isomer, unassigned) [Compound 13A] |
| 2 to 25 | C[C@H]1C(=O)N(c2ccc3[nH]cnc3c2)[C@H]1c1c(F)cc(-c2cnn(C)c2)cc1F (single isomer, unassigned) [Compound 13B] |
| 25 to 1000 | C[C@@H]1C(=O)N(c2ccc3[nH]cnc3c2)[C@@H]1c1c(F)cc(-c2cnn(C(F)(F)F)c2)cc1F (single isomer, unassigned) [Compound 14A] |
| < 2 | C[C@H]1C(=O)N(c2ccc3[nH]cnc3c2)[C@H]1c1c(F)cc(-c2cnn(C(F)(F)F)c2)cc1F (single isomer, unassigned) [Compound 14B] |
| > 1000 | Cn1cc(-c2cc(F)c([C@@H]3[C@H](O)C(=O)N3c3ccc4[nH]cnc4c3)c(F)c2)cn1 (single isomer, unassigned) [Compound 15A] |
| < 2 | Cn1cc(-c2cc(F)c([C@H]3[C@@H](O)C(=O)N3c3ccc4[nH]cnc4c3)c(F)c2)cn1 (single isomer, unassigned) [Compound 15B] |
| 25 to 1000 | C[C@@H]1C(=O)N(c2ccc3[nH]cnc3c2)[C@@H]1c1c(F)cc(-c2cnn(C(F)F)c2)cc1F (single isomer, unassigned) [Compound 17A] |
| < 2 | C[C@H]1C(=O)N(c2ccc3[nH]cnc3c2)[C@H]1c1c(F)cc(-c2cnn(C(F)F)c2)cc1F (single isomer, unassigned) [Compound 17B] |
| > 1000 | O=C1[C@@H](C2CC2)[C@@H](c2c(F)cc(OCCC(F)F)cc2F)N1c1ccc2[nH]cnc2c1 (single isomer, unassigned) [Compound 18A] |
| < 2 | O=C1[C@H](C2CC2)[C@H](c2c(F)cc(OCCC(F)F)cc2F)N1c1ccc2[nH]cnc2c1 (single isomer, unassigned) [Compound 18B] |
| 25 to 1000 | C=C1C(=O)N(c2ccc3[nH]cnc3c2)[C@@H]1c1c(F)cc(OCCC(F)F)cc1F (single isomer, unassigned) [Compound 22A] |
| < 2 | C=C1C(=O)N(c2ccc3[nH]cnc3c2)[C@H]1c1c(F)cc(OCCC(F)F)cc1F (single isomer, unassigned) [Compound 22B] |
| > 1000 | C[C@@H]1C(=O)N(c2ccc3[nH]cnc3c2)[C@@H]1c1c(F)cc(N2CCC(F)(F)CC2)cc1F (single isomer, unassigned) [Compound 30A] |
| 2 to 25 | C[C@H]1C(=O)N(c2ccc3[nH]cnc3c2)[C@H]1c1c(F)cc(N2CCC(F)(F)CC2)cc1F (single isomer, unassigned) [Compound 30B] |
